# Measurements taken from US20100035822A1, “PROLINE-RICH PEPTIDES, PHARMACEUTICAL COMPOSITION, USE OF ONE OR MORE PEPTIDES AND METHOD OF TREATMENT” (priority 2006, published 2010).
# Entries after “also recorded” stand apart in the source; their conditions may differ.
# How the values were obtained:
# [1] = target: T1, argininosuccinate synthase (AsS) (Mus musculus, UniProt P16460); assay: Affinity chromatography of mouse kidney extract on peptide column; identification of the bound protein; format: binding; settings: affinity column with SEQ ID NO 7 as ligand; crude mouse kidney extract
# T1 construct: Cytosolic and membrane fractions of the renal extract (100 mg/ml total protein) were applied to separate columns; from tissue; host or cells: Balb-c mouse kidney, cytosolic and membrane fractions
# T1 sequence (P16460 1-412): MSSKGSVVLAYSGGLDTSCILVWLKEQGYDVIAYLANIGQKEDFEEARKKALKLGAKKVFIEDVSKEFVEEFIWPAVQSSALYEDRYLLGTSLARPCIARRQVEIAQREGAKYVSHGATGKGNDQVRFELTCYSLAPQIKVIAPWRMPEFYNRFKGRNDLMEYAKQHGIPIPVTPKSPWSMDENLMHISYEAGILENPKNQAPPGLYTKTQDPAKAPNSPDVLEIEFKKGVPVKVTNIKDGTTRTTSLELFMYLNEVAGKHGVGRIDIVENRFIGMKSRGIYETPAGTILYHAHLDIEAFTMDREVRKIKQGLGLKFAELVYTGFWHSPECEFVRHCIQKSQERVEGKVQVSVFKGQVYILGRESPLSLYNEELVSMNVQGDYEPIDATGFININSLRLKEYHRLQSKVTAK
# Experimental: Starting material were the cytosolic and plasma membrane crude extracts of mouse kidney cells homogenized in the buffer 10 mM Tris-HCl pH 7.5, 25 mM saccharose, 1 mM EDTA, and 1 mM PMSF (cytosolic fraction), or 1% Triton X-100 (plasma membrane fraction). Supernatants were dialyzed in 0.2 M NaHCO3, 0.5 M NaCl, pH 8.3, and separately applied to the affinity chromatography column Hitrap NHS-activated (GE Healthcare) coupled to 5 mg of peptide SEQ ID NO 7.
# Preparing affinity columns. Columns were washed three times with 2 ml 1 mM HCl before homogeneous preparations of SEQ ID NO 7 (5 mg in 1 ml 0.2 M NaHCO3, 0.5 M NaCl, pH 8.3) were applied. After 30 min incubation at room temperature, peptides had been coupled, and the column was inactivated with buffer A (0.5 M ethanolamine, 0.5 M NaCl, pH 8.3), and washed with 0.2 M NaHCO3, 0.5 M NaCl, pH 8.3, and stored at 4° C. in 50 mM Na2HPO4, 0.1%, NaN3, pH 7.0. The columns were called HiTrap-SEQ. ID NO 7. […]
# Affinity chromatography and analysis of the retained proteins by SDS-PAGE. […] Protein concentration (mg/ml) was determined by the method of Bradford (Bradford, M. M. A rapid and sensitive method for the quantitation of microgram quantities of protein utilizing the principle of protein-dye binding. Anal. Biochem. 72: 248-254, 1976) with the Protein Assay reagent from BioRad. […]
# [2] = Determination of Z-pro metabolites in mice urine; format: in vivo, mouse; settings: mice; 0.91 mg/Kg intraperitoneally; urine collected after 24 hours; mass spectrometry; 0.91 mg/kg
# Experimental: In vivo hydrolysis of peptides SEQ ID NO 1, SEQ ID NO 4, SEQ ID NO 5, SEQ ID NO 8, and SEQ ID NO 15 was investigated in Swiss male mice weighing approximately 22-25 g, which had free access to food and water, and were kept under a light-dark cycle of 12 hour periods.
# Groups of 10 mice were treated intraperitoneally with 0.91 mg/Kg of each proline rich oligopeptide per animal, diluted in 200 μl saline. Treated and control animals (not treated) were kept in metabolic cages, and their urine was collected after 24 hours. The urine was pre-purified in a reverse phase Sep-Pak C18 micro column (Waters), which had been previously equilibrated with solvent A (H2O/0.1% TFA). Samples were eluted with 60% solvent B (90% acetonitrile/10% solvent A), lyophilized, and resuspended in 1 ml deionized water to be centrifuged at 14.000 rpm for 5 minutes. The supernatant (500 μl) was fractionated in an analytic HPLC system. The gradient was 5-65% solvent B for 30 minutes, using a flow rate of 1 ml/min and monitoring at 214 nm. Fractions were lyophilized and ressuspended in acetonitrile/H2O (1:1), containing 0.2% formic acid, and were analyzed by mass spectrometry (Q-TOF-Pro). Urine fractions from control and treated animals were compared to determine the presence of metabolites originated from the peptides being tested.
substance,measurement,setting,value
<ENWPHPQIPP [SEQ ID NO 8],binding to the approx. 46 kDa protein (AsS) of mouse kidney extract,[1],capable of selectively binding
same,Metabolites in the urine,[2],<ENWPHPQIPP; also recorded: <ENWPHPQIP
